# Measured values reported in US9295665B2, “Inhibition of neovascularization by simultaneous inhibition of prostanoid IP and EP4 receptors” (ALLERGAN, INC., priority 2013, dated 2016).
# Legend:
# IP receptor [1] = molecular target: T1, IP receptor (Homo sapiens, UniProt P43119); experiment: Cellular Dielectric Spectroscopy (impedance) in human retinal microvascular endothelial cells, IP agonist; format: cell-based; parameters: TNFα-stimulated human macrophages, obtained from individual donors; endogenous in cells; host or cells: TNFα-stimulated human macrophages from individual donors; settings: HRMECs, normalized to PGE2 at 10 μM; read-out: EC50, change in impedance
# Experimental: Cellular dielectric spectroscopy, as known in the art, was employed to determine EC50 levels for EP4 agonist and IP agonist in human retinal microvascular endothelial cells (HRMECs). […].
# Cellular Dielectric Spectroscopy (CDS) is a label-free technology to measure the changes in impedance of cells in response to receptor stimulation. HRMEC cells were seeded at on 96 well plates (CDS plates) coated with fibronectin and incubated for 24 hrs at 37° C., 5% CO2. On the day of the experiment, the culture medium was replaced by HBSS, BSA 1% and incubated for 1 h at 28° C. Compounds were then added and the signal was monitored for 10 minutes at 28° C. Compounds were tested at the following final concentrations in assay buffer containing 0.1% DMSO: 1E-12, 1E-11, 1E-10, 1E-9, 1E-8, 1E-7, 1E-6, and 1E-5M. The background signal (buffer only) was systematically subtracted to the signal in order to determine the specific signal. The effect of EP4 agonist Formula V and IP agonist Cicaprost were normalized to the signal of the positive control PGE2 at 10 μM. All data were generated in duplicate.
# IP receptor [2] = molecular target: T1, IP receptor; experiment: VEGF secretion in TNFα-stimulated human macrophages (IP agonist / IP antagonist)
# Experimental: (§1) Histogram ordering (both panels, left to right): No stimulus; vehicle; 0.1 nM; 1 nM; 10 nM; 100 nM; 1000 nM of agonist.
# EP4 receptor = EP4 receptor (Homo sapiens, UniProt P35408); experiment: VEGF secretion in TNFα-stimulated human macrophages (EP4 agonist / EP4 antagonist); settings: 100 nM PGE2, TNFα-stimulated human macrophages from individual donors, 1, 3, 10 μM antagonist, n=3
# Chain of EP4 receptor (P35408 whole entry): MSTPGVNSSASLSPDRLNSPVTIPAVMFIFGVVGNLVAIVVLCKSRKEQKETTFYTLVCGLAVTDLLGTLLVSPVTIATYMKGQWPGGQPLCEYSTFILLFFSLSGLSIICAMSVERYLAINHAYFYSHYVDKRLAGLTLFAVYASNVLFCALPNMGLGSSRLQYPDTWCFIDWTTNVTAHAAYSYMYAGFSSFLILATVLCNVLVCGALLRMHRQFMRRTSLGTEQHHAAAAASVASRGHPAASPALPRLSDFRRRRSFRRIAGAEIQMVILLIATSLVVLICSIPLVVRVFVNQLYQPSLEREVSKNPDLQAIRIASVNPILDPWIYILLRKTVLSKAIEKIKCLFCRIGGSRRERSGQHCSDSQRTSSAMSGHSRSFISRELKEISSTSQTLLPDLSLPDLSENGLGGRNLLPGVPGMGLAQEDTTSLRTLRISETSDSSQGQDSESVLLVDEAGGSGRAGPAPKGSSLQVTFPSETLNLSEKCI
# Experimental: as §1
# T1 sequence (P43119 whole entry): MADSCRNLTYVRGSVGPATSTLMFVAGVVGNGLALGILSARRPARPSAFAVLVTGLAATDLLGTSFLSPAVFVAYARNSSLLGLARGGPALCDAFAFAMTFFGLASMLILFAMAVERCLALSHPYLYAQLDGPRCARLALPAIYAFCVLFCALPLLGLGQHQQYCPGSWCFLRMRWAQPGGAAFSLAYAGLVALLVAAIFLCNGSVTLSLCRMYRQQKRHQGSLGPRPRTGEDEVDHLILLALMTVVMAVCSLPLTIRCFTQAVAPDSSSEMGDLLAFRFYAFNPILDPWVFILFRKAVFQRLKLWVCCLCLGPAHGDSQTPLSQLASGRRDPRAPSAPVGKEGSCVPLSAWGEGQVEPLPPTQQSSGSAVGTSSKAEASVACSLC
structure (smiles),measurement,setting,value
"CCC#CC[C@H](C)[C@H](O)C#C[C@@H]1[C@H]2C/C(=C/COCC(=O)O)C[C@H]2C[C@H]1O [Cicaprost, cicaprost]",EC50,IP receptor [1],0.018 µM
same,EC50,IP receptor [2],0.0023 µM
CCOc1c2c(c(OCC)c3ccccc13)C(=O)N(c1ccc(CC(=O)NS(=O)(=O)c3ccccc3)cc1)C2 [Formula IV],Inhibition of PGE2-induced VEGF secretion,EP4 receptor,dose dependently inhibiting
CC(C)Oc1ccc(Cc2ccc(NC3=NCCN3)cc2)cc1 [Formula I],Inhibition of Cicaprost-induced VEGF secretion,"IP receptor [2]; 100 nM Cicaprost, TNFα-stimulated human macrophages from individual donors, 1, 3, 10 μM antagonist, n=2",dose dependently inhibiting
